Source: ChEMBL document CHEMBL1135960 (Bioorg Med Chem Lett, 2002)
Calls of active or inactive are those of the source. The calls are words filed in the database; no cut-off is given here.

What was measured:
[1] = biological target: T1, Serotonin 3 (5-HT3) receptor (Homo sapiens) (UniProt P46098+A5X5Y0+O95264+Q70Z44+Q8WXA8); experiment: Intrinsic activity towards CNS 5-hydroxytryptamine 3 receptor was determined; A: agonist; format: functional; settings: filed as agonist
[2] = biological target: T1, Serotonin 3 (5-HT3) receptor (Homo sapiens); experiment: Intrinsic activity towards 5-hydroxytryptamine 3 receptor was determined by Benzold-Jarisch reflex (peripheral assay); A: agonist; format: functional; settings: filed as agonist
[3] = biological target: T1, Serotonin 3 (5-HT3) receptor (Homo sapiens); experiment: Intrinsic activity towards CNS 5-hydroxytryptamine 3 receptor was determined; ANT: Antagonist; format: functional; settings: filed as antagonist
[4] = biological target: Serotonin 3 (5-HT3) receptor; experiment: Binding affinity towards 5-hydroxytryptamine 3 receptor; format: protein-complex assay
[5] = biological target: T1, Serotonin 3 (5-HT3) receptor (Homo sapiens); experiment: Intrinsic activity towards 5-hydroxytryptamine 3 receptor was determined by Benzold-Jarisch reflex (peripheral assay); ANT: antagonist; format: functional; settings: filed as antagonist
[6] = system: Serotonin 3 (5-HT3) receptor; experiment: Binding affinity of compound towards 5-hydroxytryptamine 3 receptor; NA: not active; format: protein-complex assay
[7] = biological target: T1, Serotonin 3 (5-HT3) receptor (Homo sapiens); experiment: Intrinsic activity towards CNS 5-hydroxytryptamine 3 receptor was determined; NA: not active; format: protein-complex assay
[8] = biological target: T1, Serotonin 3 (5-HT3) receptor (Homo sapiens); experiment: Intrinsic activity towards 5-hydroxytryptamine 3 receptor was determined by Benzold-Jarisch reflex (peripheral assay); PA: Partial agonist; format: functional; settings: filed as partial agonist

## NCCc1c[nH]c2ccc(O)cc12
[1]
  Intrinsic activity: Agonist
[2]
  Intrinsic activity: Agonist

## N=C(N)NC(=N)Nc1ccc2ccccc2c1
[2]
  Intrinsic activity: Agonist

## CN1CCN(c2nc3ccccc3c3c2CC2CCC3C2)CC1 (stereo not drawn)
[3]
  Intrinsic activity: Antagonist
[4]
  Ki: 0.83 nM

## O=[N+]([O-])c1ccc2nc(N3CCNCC3)ccc2c1 [6-NITROQUIPAZINE]
[4]
  Ki: 58 nM
[5]
  Intrinsic activity: Antagonist

## N=C(N)NC(=N)Nc1cccc(Cl)c1
[1]
  Intrinsic activity: Agonist
[2]
  Intrinsic activity: Agonist

## N=C(N)Nc1ccc2ccccc2c1
[2]
  Intrinsic activity: Agonist

## CN1CCN(c2nc3ccccc3n3cccc23)CC1
[1]
  Intrinsic activity: Agonist
[4]
  Ki: 0.23 nM
[5]
  Intrinsic activity: Antagonist

## CN1CCN(c2cc3cc(C(F)(F)F)ccc3n3cccc23)CC1
[6]
  Ki: Not Active
[7]
  Intrinsic activity: inactive
[5]
  Intrinsic activity: Antagonist

## CN1CCN(c2nc3ccccc3c3c2CCCC3)CC1
[4]
  Ki: 0.23 nM

## N=C(N)NC(=N)Nc1ccccc1
[1]
  Intrinsic activity: Agonist
[2]
  Intrinsic activity: Agonist

## CN1CCN(c2nc3ccccc3c3ccccc23)CC1
[1]
  Intrinsic activity: Agonist
[4]
  Ki: 1.9 nM

## N=C(N)Nc1cccc(Cl)c1
[2]
  Intrinsic activity: Agonist

## Cc1[nH]c2ccc(O)cc2c1CCN
[1]
  Intrinsic activity: Agonist
[2]
  Intrinsic activity: Agonist

## CN1CCN(c2cc3cc(F)ccc3n3cccc23)CC1
[1]
  Intrinsic activity: Agonist
[4]
  Ki: 0.51 nM
[5]
  Intrinsic activity: Antagonist

## c1ccc2nc(N3CCNCC3)ccc2c1
[1]
  Intrinsic activity: Agonist
[8]
  Intrinsic activity: Partial agonist

## NC1CCN(c2cccc(Cl)n2)CC1
[1]
  Intrinsic activity: Agonist
[4]
  Ki: 103 nM

## Clc1ccc2ccc(N3CCNCC3)nc2c1
[4]
  Ki: 38 nM
[5]
  Intrinsic activity: Antagonist
